# From PMC9046208, “Foldamers reveal and validate therapeutic targets associated with toxic α-synuclein self-assembly” (Nature Communications, 2022)
# Experiments:
# [1] = target: T1, αS aggregation in the presence of LUVs (DOPS) (Homo sapiens, UniProt P37840); experiment: Lipid (LUVs, DOPS) catalyzed αS aggregation, ThT; format: biochemical; settings: equimolar ratio
# T1 construct: made in house; host or cells: Escherichia coli BL21(DE3), periplasm
# Procedure: The aggregation kinetics of αS was monitored using ThT fluorescence assay (λex = 450 nm and λem = 485 nm). To study the aggregation kinetics of αS, the ThT dye at a final concentration of 50 μM was added to 100 μM αS solution in the aggregation buffer (1 x PBS buffer) with and without various concentrations of SK-129 in a Costar black 96–well plate (Corning Inc., Kennebunk, ME). The small molecules were dissolved in dimethyl sulfoxide (DMSO; final DMSO concentration = 0.5%, v/v). The final volume in each well was 140 μL. The plate was incubated at 37 °C with 16 min shaking (434 rpm) and 44 min without shaking in an Infinite M200PRO plate reader (Tecan, Männedorf, Switzerland) and fluorescence was recorded after every hour. We used two methods to quantify the effect of molecules on the aggregation of αS; either we have reported the t50 (time required to reach 50% fluorescence of ThT), which was extracted by fitting the ThT curve as a sigmoidal fit or the absolute ThT fluorescence intensity was reported. […] In the second method, we determined the final ThT fluorescence intensity for the aggregation of αS/Aβ42(with or without ligands) as an average of three separate experiments. […]
# lipid-free and lipid-catalyzed aggregation of αS was monitored after 7 days. […]
# equimolar ratio after four days. The data were expressed as mean and the error bars report the […]
# [2] = target: T2, αS seeds extracted from PD brain (Homo sapiens, UniProt P37840); experiment: PMCA assay with αS seeds from PD brain (PK digestion, western blot); format: biochemical; settings: SK-129 equimolar
# T2 construct: Synuclein Residues (1-140); made in house; host or cells: Monomer: Escherichia coli BL21(DE3), WT αS in pET11 (Addgene); Seeds: fixed human substantia nigra tissue from post mortem PD brain
# Text: Fixed brain tissues were obtained from the Carroll A. Campbell, Jr. Neuropathology Lab (CCNL) brain bank at the Medical University of South Carolina (Dr. Steve Carroll, Director) and from Dr. Greg Gerhardt’s laboratory at the University of Kentucky. The seeds were extracted from the post mortem brain by following a published protocol with a slight modification. The brain was sliced in 1 cm slabs as soon as possible to avoid long post mortem intervals and fixed free-floating in a solution of 4% paraformaldehyde in 1x PBS buffer (4% paraformaldehyde in 1x PBS buffer). […] Following fixation, tissue was transferred to a cryoprotectant solution (30% glycerol, 30% ethylene glycol, and 40% 1x PBS buffer, v,v) and kept at −20 °C until dissection. A total of Sixteen brain regions were dissected after fixation and processed for neuropathological diagnosis of PD according to a published protocol. A diagnosis was conducted, which included staining with H & E, Bielshowsky’s silver stain, as well as p-Tau, Amyloid-β, and αS immunohistochemistry (See main manuscript Fig. 4b, c). From the total tissue amount, ~100 mg of fixed substantia nigra tissue was homogenized using a Bio-Gen PRO200 Tissue Homogenizer (PRO Scientific Inc., Oxford, CT) in 1x PBS buffer (10%, w/v). The homogenate was centrifuged at a rate of 19,000 × g for 12 min. […]
structure (smiles),measurement,setting,value
COC(=O)c1cc(OCC(=O)O)c2cccc(NC(=O)c3cc(OC(C)C)c4cccc(NC(=O)c5cc(OCC(=O)O)c6cccc(NC(=O)c7cc(OC(C)C)c8cccc([N+](=O)[O-])c8n7)c6n5)c4n3)c2n1 [SK-129],effect on lipid catalyzed aggregation of αS,[1],wholly inhibited
same,state of PMCA sample (cycle 5) of PD brain extract,[2],neither aggregated nor PK resistant
